Assay results from PubChem BioAssay AID504526 (Southern Research Specialized Biocontainment Screening …, 2011).
Values joined by “and” are separate entries in the source; they are usually repeats but may differ in a detail not shown here. Identical values can stand only once. Active and inactive are the calls of the source. The rule behind the calls is not given here.

Tested on: RSV-infected cells, CPE inhibition (cell viability)
Test: inhibition of RSV-induced host cell death – synthesized compounds, set 6, dose response (AID 504526)

Row | SMILES | IC50
1 | COc1cccc(CNC(=O)C2CCN(S(=O)(=O)c3cccc4nonc34)CC2)c1 | > 50 µM (inactive)
2 | COc1ccccc1CNC(=O)C1CCN(S(=O)(=O)c2cccc3nonc23)CC1 | 3.6 µM and 4.7 µM
3 | COc1ccccc1CNC(=O)C1CCN(S(=O)(=O)c2cccc3scnc23)CC1 | > 50 µM (inactive)
4 | COc1ccccc1NCC(=O)Nc1cc(S(=O)(=O)N2CCOCC2)ccc1N1CCOCC1 | > 50 µM (inactive)
5 | COc1ccccc1CNC(=O)C1CCN(S(=O)(=O)c2cccc3cccnc23)CC1 | > 50 µM (inactive)
6 | COc1ccccc1CNC(=O)[C@@H]1CCCN1S(=O)(=O)c1cccc2cccnc12 | 18.8 µM
7 | Cc1ccccc1CNC(=O)C1CCN(S(=O)(=O)c2cccc3nonc23)CC1 | > 50 µM (inactive)
8 | COc1ccccc1CNC(=O)C1CCN(Cc2cccc3nonc23)CC1 | > 50 µM (inactive)
9 | COCCNC(=O)c1ccc(Cn2c(=O)c3ccccc3n(Cc3ccc(C)cc3)c2=O)cc1 | 2.32 µM
10 | Cc1ccc(C)c(NC(=O)[C@@H]2CCCN2S(=O)(=O)c2cccc3cccnc23)c1 | 5.1 µM
11 | Cc1ccc(C(F)(F)F)cc1NC(=O)[C@@H]1CCCN1S(=O)(=O)c1cccc2cccnc12 | > 50 µM (inactive)
12 | Cc1ccc(C(C)C)cc1NC(=O)[C@@H]1CCCN1S(=O)(=O)c1cccc2cccnc12 | > 50 µM (inactive)
13 | COc1ccc(C)c(NC(=O)[C@@H]2CCCN2S(=O)(=O)c2cccc3cccnc23)c1 | 3.51 µM
14 | COc1ccccc1CNC(=O)C1CCN(S(=O)(=O)c2ccccc2)CC1 | > 50 µM (inactive)
15 | COc1ccc(C)cc1NC(=O)[C@@H]1CCCN1S(=O)(=O)c1cccc2cccnc12 | > 50 µM (inactive)
16 | Cc1cccc(C)c1NC(=O)[C@@H]1CCCN1S(=O)(=O)c1cccc2cccnc12 | 34.6 µM
17 | O=C(NCc1ccccc1Cl)C1CCN(S(=O)(=O)c2cccc3nonc23)CC1 | 6.9 µM
18 | O=C(O)C1CC=CCC1C(=O)Nc1ccc(S(=O)(=O)N2CCCc3ccccc32)cc1 (centres undefined) | 31.4 µM
19 | Cc1ccc(C(C)(C)C)cc1NC(=O)[C@@H]1CCCN1S(=O)(=O)c1cccc2cccnc12 | > 50 µM (inactive)
20 | Cc1ccc(Cl)cc1NC(=O)[C@@H]1CCCN1S(=O)(=O)c1cccc2cccnc12 | 0.22 µM
21 | COCCCNC(=O)c1ccc(Cn2c(=O)c3ccc(Cl)cc3n(Cc3ccc(C)cc3)c2=O)cc1 | > 50 µM (inactive)
22 | Cc1ccc(Cl)c(NC(=O)[C@@H]2CCCN2S(=O)(=O)c2cccc3cccnc23)c1 | > 50 µM (inactive)
23 | COc1ccc(CNC(=O)C2CCN(S(=O)(=O)c3cccc4nonc34)CC2)cc1 | > 50 µM (inactive)
24 | COCCCNC(=O)c1ccc(Cn2c(=O)c3ccccc3n(Cc3ccccc3)c2=O)cc1 | > 50 µM (inactive)
